PubChem BioAssay (NCI)
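Where inhibition never reached the appropriate level, the endpoint shown equals the highest concentration tested. Otherwise, values were interpolated linearly from a five-concentration, 48-hour dose response in 96-well plates. TGI: total growth inhibition.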

Columns and labels:
Assay in all cases: inhibition of tumour cell growth, NCI panel, 48 h
[1] = tested on: A549 NSCLC
[2] = tested on: CAKI-1 renal
[3] = tested on: CCRF-CEM leukemia
[4] = tested on: HCT-116 colon
[5] = tested on: HOP-92 NSCLC
[6] = tested on: LOX IMVI melanoma
[7] = tested on: NCI-H23 lung
[8] = tested on: OVCAR-8 ovarian
[9] = tested on: SK-MEL-5 melanoma
[10] = tested on: SK-OV-3 ovarian

Compound	TGI [1] [µM]	TGI [2] [µM]	TGI [3] [µM]	TGI [4] [µM]	TGI [5] [µM]	TGI [6] [µM]	TGI [7] [µM]	TGI [8] [µM]	TGI [9] [µM]	TGI [10] [µM]
C/C(=N\NC(N)=S)C(CN(CC(C)C)CC(C)C)C(=O)Nc1ccc(C)cc1C (stereo not given)	> 100	> 100	> 100	> 100	> 100	> 100	> 100	> 100	> 100	> 100
O=c1c2cc(I)ccc2nc(Sc2ncccc2[N+](=O)[O-])n1Cc1ccccc1	> 100	> 100	> 100	> 100	77.6	> 100	> 100	> 100	91.6	> 100
CN(C)CCNC(=O)c1cccc2nc3c(nc12)-c1ccccc1C3=O	37.7	66.4	17.4	88.3	40.9	12.7	35.4	62.7	25.1	97
CNC(=O)c1cc(NC(=O)N(CCC#N)CCN(C(=O)N[C@@H](Cc2ccccc2)C(=O)N[C@@H](CC(C)C)C(=O)NC)c2ccccc2)ccc1OC	> 100	> 100	> 100	> 100	71.7	> 100	> 100	> 100	> 69.2	> 100
COC(=O)/C=C/c1cc(O)c2c(c1)[C@H](C(=O)OC)[C@@H](c1ccc(O)c(O)c1)O2	> 100	> 100	5.18	> 72	> 94	> 82.6	> 100	4.37	2.18	> 79.8
Cc1cccc(C2=NC(C)(C)C(C)(C)N=C2c2cccc(C)n2)n1	> 100	> 100	> 100	> 100	> 100	> 100	> 100	> 100	> 100	> 100
Oc1ccc(SCc2cc(O)c(O)c(O)c2)cc1	> 100	> 100	74.4	34.2	> 100	> 100	> 100	49.6	40.7	> 100
O=C1Cc2c([nH]c3ccc(Br)cc23)-c2ccccc2N1	> 100	> 100	> 100	[…]	> 100	> 100	> 100	> 100	> 100	> 100
CC(C)(C)C1(COC(=O)c2ccc(N)cc2)COC1	> 100	> 100	> 100	> 100	> 100	> 100	> 100	> 100	> 100	> 100
CCOC(=O)/C=C(\C(=O)OCC)n1ccc(N)nc1=O	> 100	> 100	60.5	> 100	> 100	> 100	> 100	> 100	> 100	> 100
C=CCSC1=N/C(=C\c2ccccc2)C(=O)N1CC=C	> 100	> 100	49.8	> 100	> 78.1	> 81.3	> 100	> 100	37.3	> 100
O=C1C(Br)=CC2(C=C1Br)CCNC1=C2C(=O)c2cccnc2C1=O	30.1	32.3	25.5	26.4	30.2	18.9	18.2	32.4	12.8	31.8
O=[N+]([O-])c1ccc(N=Nc2c(O)c(S(=O)(=O)O)cc3cc(S(=O)(=O)O)ccc23)cc1	> 100	> 100	> 100	> 100	> 100	> 100	> 100	> 100	> 100	> 100
O=C(c1ccccc1)c1ccc2nc(-c3c(Cl)c(Cl)c(Cl)c(Cl)c3C(=O)N/N=C/c3ccccc3)[nH]c2c1	> 100	> 100	> 100	> 100	> 100	> 100	80.9	> 100	33.4	> 100
C=C(CC[C@@H](C(=O)O)[C@H]1[C@H](O)C[C@@]2(C)C3=CC[C@@H](C(=C)C)[C@](C)(CCC(=O)O)C3=CC[C@]12C)C(C)C	35.1	28.9	> 100	30.7	33.7	38.4	31.6	39.9	36.3	31.9
Cc1nc2ccc(S(=O)(=O)O)cc2c(=O)n1-c1ccc(C(=O)NN2C(=O)C(Cl)C2c2ccccc2O)cc1 (stereo not given)	> 100	> 100	> 100	> 100	> 100	> 100	> 100	> 100	> 100	> 100
CC(C)c1ccc(/C=C2\CSCC3=C2NC(=S)NC3c2ccc(C(C)C)cc2)cc1 (stereo not given)	> 100	> 100	> 100	> 100	> 100	> 100	> 100	> 100	99.5	> 100
O=C(CCCCCCCCC(=O)N1C(=O)CC(=O)N(c2cccc(Cl)c2)C1=S)N1C(=O)CC(=O)N(c2cccc(Cl)c2)C1=S	> 100	> 100	> 100	> 100	51.1	> 100	> 100	> 100	> 100	> 100
CCCCc1ccc(Nc2ncc3[nH]cnc3n2)cc1	53.2	36.4	> 100	34.5	49.7	37.6	35.4	36.3	31.1	38.1
